Measured values published in patent publication US20110152169A1, “SPARC ANTI-INFLAMMATORY ACTIVITY AND USES THEREOF” (priority 2008, published 2011).
Each block holds one molecule with its values, some of them ahead of it.

What was measured:
Type in all cases: cell-based, human
SKOV3 [1] = assay: Proliferation, CellTiter96 (MTS)
Experimental: (§1) The proliferation of SKOV3 and OVCAR3 transduced or not with Ad-GFP or Ad-GFP-SPARC as described in Example 1, in response to MCP-1, was assessed using a commercially available CellTiter96 kit (Promega) according to the manufacturer' instructions. The number of proliferating cells was determined colorimetrically by measuring the absorbance at 590 nm (0D590) of the dissolved formazan product after the addition of 3 -(4,5 -dimethylthiazol-2-yl)-5-(3 -carboxymethoxyphenyl)-2-(4-sulfophenyl)-2H-tetrazolium (MTS) for 3 hours.
(§2) The proliferation and invasiveness of SKOV3 and OVCAR3 cells, transduced or not with Ad-GFP and Ad-GFP-SPARC, in response to PGE2, was determined as described in Example 3. The results shown in FIG. 5 are expressed as the mean±SEM of three independent experiments performed in quadruplicate (proliferation) or triplicate (invasion). *P<0.05, compared to the matched WT cells or Ad-GFP transduced cells. **P<0.05, compared to NS control cells.

OVCAR3 [2] = assay: Proliferation, CellTiter96 (MTS)
Experimental: as §1, §2

NF-κB promoter = NF-κB promoter luciferase reporter assay; settings: SKOV3 and OVCAR3, concentration-dependent up to 5 nM
SKOV3 [3] = assay: Matrigel invasion assay
Experimental: (§3) The invasiveness of SKOV3 and OVCAR3 transduced or not with Ad-GFP or Ad-GFP-SPARC as described in Example 1, in response to MCP-1, was assessed as previously described (Said et al., Am J Pathol, 167: 1739-52 (2005)). 1×10^5 cells per […] in the presence and absence of MCP-lwere added to the upper chamber of polycarbonate inserts ([…] pore size, Corning Costar, Corning, N.Y.) coated on ice with Growth factor—reduced Matrigel (BD Biosciences, Bedford, Mass.) diluted 1:3 in SFM. In some experiments, cells were pretreated with MCP-1 antibody (25 µg/ml) or its isotype control (50 μg/ml) for 30 minutes before stimulation. The bottom chambers contained complete growth medium. […] The migrated cells were counted in six fields after staining with hemacolor 3 stain (SOURCE?), using an inverted microscope equipped with a DFC 320 digital camera (Leica Microsystems, Wetzlar, Germany) under 200× magnification.
as §2

OVCAR3 [4] = assay: Matrigel invasion assay
Experimental: as §3, §2

MCP-1 = MCP-1 protein secreted in conditioned medium, ELISA; settings: 50 μM LPA
Experimental: Ovarian cancer cell lines were transduced for 24 hours with adenovirus expressing GFP (Ad-GFP) or adenovirus expressing GFP and SPARC (Ad-GFP-SPARC) in complete growth medium at a multiplicity of infection of 15 to 25 as described previously (Said et al., Am J Pathol, 170: 1054-63 (2007)).
Confluent monolayers (−106 cells, serum starved overnight) of wild type (WT) human ovarian cancer cell lines SKOV3 or OVCAR3, were stimulated with 50 μM lysophosphatidic acid (LPA) for 24 hours in the presence and absence of SPARC (10 μg/ml). Similarly, adenovirus-transduced SKOV3 and OVCAR3 were stimulated with 50 [M LPA for 24 to 48 hours. Alternatively, adenovirus-transduced SKOV3 and OVCAR3 were seeded onto confluent monolayers or cocultured with Meso301 for 24 to 48 hours. MCP-1 protein secreted in the conditioned medium (CM) of SKOV3 and OVCAR3 was determined by ELISA using a commercially available kit (RayBioTech, Inc., Norcross, Ga.). Controls included cells that were not stimulated (NS) with LPA.

PGE2 = PGE2 level in conditioned medium, enzyme immunoassay
Experimental: LPA (50 μM) or exogenous SPARC (20 μg/ml) (SOURCE?) was included in some experiments.
SKOV3 and OVCAR3 cells were treated as described in Example 6, and PGE2 level was determined in the CM using a commercially available enzyme immunoassay kit (Cayman Inc.) according to the manufacturer's instructions.

uPA = uPA activity in conditioned medium, colorimetric assay; settings: for inhibition of LPA-induced uPA activity: 24 hours
Experimental: uPA activity in CM of confluent monolayers (˜10^6 cells) of serum-starved SKOV3 and OVCAR3 was measured in WT cells stimulated for 24 hours with LPA (50 μM) in the presence and absence of SPARC (10 μg/ml). uPA activity in adenovirus-transduced SKOV3 and OVCAR3 stimulated or not with LPA, or cocultured with Meso301 monolayers, U937 macrophages (added in 0.22-μm transwell inserts), or in triple-culture systems was also measured. uPA activity in CM was measured using a commercially available colorimetric assay kit (Chemicon) according to the manufacturer's instructions. […] The results are mean±SEM of a representative of three independent experiments, each performed in duplicate. *P<0.05, compared to nonstimulated WT or Ad-GFP cells. **P<0.05, compared to matched WT or Ad-GFP condition. #P<0.05, compared to coculture of ovarian cancer cells with either Meso301 or U937 in two-cell culture systems.

MMP-2 and MMP-9 = assay: Gelatin zymography of conditioned media
Experimental: Subconfluent monolayers of ovarian cancer cells, transduced or not with Ad-GFP and Ad-GFP-SPARC, were grown in six-well plates alone or in coculture with mesothelial cell monolayers and serum-starved in SFM overnight. U937 macrophages (2×10^6 cells/ml SFM) were cultured in 0.22-μm transwell chambers (Corning, Costar) alone, in cocultures without direct cell-cell contact with ovarian cancer cells, or in triple cultures with ovarian cancer cells and mesothelial cells for an additional 24 hours. LPA (50 μM) or exogenous SPARC (20 μg/ml) (SOURCE?) was included in some experiments. Cell culture conditioned media (CM) were collected, cleared by centrifugation, and concentrated five-fold using Centricon centrifugal filters (Millipore, Bedford, Mass.). […] CM equivalent to 200 μg of ovarian cancer cells, and/or U937 cells was analyzed by gelatin zymography as described previously (Said et al., Am J Pathol, 167: 1739-52 (2005)).

8-isoprostane = 8-isoprostane level in conditioned medium, enzyme immunoassay
Experimental: SKOV3 and OVCAR3 were treated as described in Example 6, and the level of 8-isoprostane was determined in the CM using a commercially available enzyme immunoassay kit (Cayman Inc.) according to the manufacturer's instructions.

IL-6 = IL-6 in conditioned medium, ELISA; settings: U937
Experimental: SKOV3 and OVCAR3 cells, transduced or not with Ad-GFP or Ad-GFP-SPARC, and U937 cells were cultured individually, in cocultures, or in triple cultures with Meso301 cells for twenty four hours, and the conditioned medium was assayed for IL-6 by ELISA as described in Example 1. The results shown in FIG. 3 represent the mean±SEM of one of three independent experiments, each performed in duplicate. *P<0.05, compared to matched WT or Ad-GFP. **P<0.05, compared to double cultures in the absence of mesothelial cells.

[5] = either cell line (SKOV3, OVCAR3)

PGE2-induced NF-κB activation (NF-κB promoter): approximately three
Molecule: CCCCC[C@H](O)/C=C/[C@H]1[C@H](O)CC(=O)[C@@H]1C/C=C\CCCC(=O)O [PGE2, prostaglandin E2]
PGE2-stimulated proliferation (SKOV3 [1]): concentration dependent
PGE2-stimulated proliferation (OVCAR3 [2]): concentration dependent
proinvasive effect of PGE2 (SKOV3 [3]): concentration dependent
proinvasive effect of PGE2 (OVCAR3 [4]): concentration dependent

increase in PGE2 production by LPA stimulation (PGE2; SKOV3 and OVCAR): 14 fold
increase in 8-isoprostane production by LPA stimulation (8-isoprostane; OVCAR): ~2.5 fold
increase in 8-isoprostane production by LPA stimulation (8-isoprostane; SKOV3): ~2.2 fold
Molecule: lysophosphatidic acid [LPA]
increase of MCP-1 production after LPA stimulation (MCP-1; SKOV3 and OVCAR3, 48 hours): nine
LPA-induced increase in uPA activity (uPA; WT and Ad-GFP-transduced OVCAR3, LPA 50 μM): 4.5 fold
LPA-induced increase in uPA activity (uPA; WT and Ad-GFP-transduced SKOV3, LPA 50 μM): 4 fold
levels of active MMP-9 after LPA stimulation (MMP-2 and MMP-9; OVCAR3 CM, LPA 50 μM): significantly increased
levels of pro- and active MMP-9 after LPA stimulation (MMP-2 and MMP-9; SKOV3 CM, LPA 50 μM): significantly increased
MMP-2 and MMP-9 activity after LPA (MMP-2 and MMP-9; U937 CM, LPA 50 μM): significantly increased

suppression of LPA-induced PGE2 production (PGE2; [5]): 40%
decrease of baseline production of PGE2 (PGE2; serum-starved SKOV3 and OVCAR3): up to 30%
suppression of LPA-induced 8-isoprostane production (8-isoprostane; [5]): up to 26%
decrease of basal 8-isoprostane (ROS) production (8-isoprostane; serum starved SKOV3 and OVCAR3): 70%
B1: Secreted protein acidic and rich in cysteine (protein, listed as Homo sapiens)
chain: APQQEALPDETEVVEETVAEVTEVSVGANPVQVEVGEFDDGAEETEEEVVAENPCQNHHCKHGKVCELDENNTPMCVCQDPTSCPAPIGEFEKVCSNDNKTFDSSCHFFATKCTLEGTKKGHKLHLDYIGPCKYIPPCLDSELTEFPLRMRDWLKNVLVTLYERDEDNNLLTEKQKLRVKKIHENEKRLEAGDHPVELLARDFEKNYNMYIFPVHWQFGQLDQHPIDGYLSHTELAPLRAPLIPMEHCTTRFFETCDLDNDKYIALDEWAGCFGIKQKDIDKDLVI
notes: matrix-associated protein added to cultures at 10 or 20 μg/ml
inhibition of LPA-induced MCP-1 production (MCP-1; OVCAR3, 24 hours): 59%
inhibition of LPA-induced MCP-1 production (MCP-1; OVCAR3, 48 hours): 30%
inhibition of LPA-induced MCP-1 production (MCP-1; SKOV3, 24 hours): 54%
inhibition of LPA-induced MCP-1 production (MCP-1; SKOV3, 48 hours): 43%
effect on IL-6 levels (IL-6): Neither exogenous SPARC nor overexpression of SPARC in U937 had any effect
attenuation of constitutive uPA activity in CM (uPA; OVCAR3): 29%
inhibition of LPA-induced uPA activity (uPA; OVCAR3, LPA 50 μM): 36%
attenuation of constitutive uPA activity in CM (uPA; SKOV3): 40%
inhibition of LPA-induced uPA activity (uPA; SKOV3, LPA 50 μM): 76%
LPA-induced activity of MMP-2 and MMP-9 (MMP-2 and MMP-9; U937 CM, SPARC 20 μg/ml): markedly decreased
